Patent publication US7524823B2, “Macrolides” (Basilea Pharmaceutica AG, priority 2005, dated 2009)
≈ marks a conversion by molar mass, not a printed value. Like-named read-outs stand apart in the source and are kept apart here.

Assays:
Assay type in all cases: cell-based
[1] = test system: Streptococcus pneumoniae 1/1; test: MIC by broth microdilution (CAMHB + 5% horse serum, NCCLS); settings: code D: Streptococcus pneumoniae 1/1
Method: (§1) MIC values for non-anaerobes were obtained by broth microdilution using CAMHB (BBL) according to NCCLS guidelines (National Committee for Clinical Laboratory Standards. Methods for dilution antimicrobial susceptibility tests for bacteria that grow aerobically, 5th ed. Approved standard M7-A6. NCCLS, Wayne, Pa., 2003). Drugs were dissolved in DMSO prior to dispensing into 96-well microtitre plates; the concentration of DMSO in assay wells never exceeded 2% (v/v). CAMHB was supplemented with 5% (v/v) horse serum (Sigma, cat. no. H-1270) in lieu of laked horse blood for cultivation of Streptococcus pneumoniae, and with 5% (v/v) Fildes enrichment (BBL, cat. no. 220810) supernate in lieu of Haemophilus Test Medium and additives for cultivation of Haemophilus influenzae (Pankuch G A, Hoellman D B, Lin G, Bajaksouzian S, Jacobs M R, Appelbaum P C. Activity of HMR 3647 compared to those of five agents against Haemophilus influenzae and Moraxella catarrhalis by MIC determination and time-kill assay. Antimicrob. Agents Chemother. November 1998; 42(11): 3032-4). Activities expressed as the minimal inhibitory concentrations (MICs) (μg/ml) are given in the following Table 3, and the microorganisms used for testing are listed in Table 2 below.

[2] = test system: Streptococcus pneumoniae SL199T; test: as above; settings: code E: Streptococcus pneumoniae SL199T
Method: as §1

[3] = test system: Streptococcus pneumoniae Tupelo; test: as above; settings: code F: Streptococcus pneumoniae Tupelo
Method: as §1

[4] = test system: Escherichia coli ATCC 25922; test: MIC by broth microdilution (CAMHB, NCCLS); settings: code C: Escherichia coli ATCC 25922
Method: as §1

[5] = test system: Staphylococcus aureus ATCC 29213; test: MIC by broth microdilution (CAMHB, NCCLS); settings: code A: Staphylococcus aureus ATCC 29213
Method: as §1

[6] = test system: Staphylococcus aureus 1086; test: MIC by broth microdilution (CAMHB, NCCLS); settings: code B: Staphylococcus aureus 1086
Method: as §1

[7] = test system: Propionibacterium acnes SW101T; test: MIC by anaerobic broth microdilution (WCB, NCCLS); settings: code K: Propionibacterium acnes SW101T, 35-37° C., 48 h
Method: (§2) MIC values towards strains of propionibacteria were obtained by broth microdilution using WCB (Anaerobe Broth MIC, Difco) according to NCCLS guidelines (National Committee for Clinical Laboratory Standards. Methods for anti-microbial susceptibility testing of anaerobic bacteria, 5th ed.; approved standard. NCCLS publication no. M11-A5. NCCLS, Wayne, Pa., 2001). Microtitre plates were loaded into 7-L GENbox anaerobic incubation jars (BioMérieux, cat. no. 96 128) fitted with anaerobic atmosphere generators (BioMérieux, cat. no. 96 124) and a Dry Anaerobic Indicator Strip (BBL, cat. no. 271051). Under these conditions, an O2 concentration <0.1% was achieved by 2.5 h, and a CO2 concentration >15% by 24 h. MIC values were read after incubation at 35-37° C. for 48 h (Table 3).

[8] = test system: Propionibacterium acnes EG7NS; test: MIC by anaerobic broth microdilution (WCB, NCCLS); settings: code I: Propionibacterium acnes EG7NS, anaerobic, 35-37° C., 48 h
Method: as §2

[9] = test system: Haemophilus influenzae 12214; test: MIC by broth microdilution (CAMHB + 5% Fildes enrichment, NCCLS); settings: code G: Haemophilus influenzae 12214
Method: as §1

[10] = test system: Haemophilus influenzae QK50; test: as above; settings: code H: Haemophilus influenzae QK50
Method: as §1

[11] = Cutibacterium acnes, read-out: MIC

| SMILES | MIC [1] | MIC [2] | MIC [3] | MIC [4] | MIC [5] | MIC [6] | MIC [7] | MIC [8] | MIC [9] | MIC [10] | MIC [7, 11] | MIC [8, 11] |
| --- | --- | --- | --- | --- | --- | --- | --- | --- | --- | --- | --- | --- |
| CC[C@H]1OC(=O)[C@H](C)[C@@H](O[C@H]2C[C@@](C)(OC)[C@@H](O)[C@H](C)O2)[C@H](C)[C@@H](O[C@@H]2O[C@H](C)C[C@H](N(C)C)[C@H]2O)[C@](C)(OC)C[C@@H](C)C(=O)[C@H](C)[C@H]2[C@H](SCCNc3ncnc4[nH]cnc34)C(=O)O[C@@]21C [Example 9] | <=0.06 μg/ml | 0.25 µg/mL | 1 µg/mL | >32 µg/mL | 4 µg/mL (≈ 4.14 µM) | >32 µg/mL | 4 µg/mL (≈ 4.14 µM) | 0.125 µg/mL (≈ 0.13 µM) | 2 µg/mL | 2 µg/mL | – | – |
| CC[C@H]1OC(=O)[C@H](C)[C@@H](O[C@H]2C[C@@](C)(OC)[C@@H](O)[C@H](C)O2)[C@H](C)[C@@H](O[C@@H]2O[C@H](C)C[C@H](N(C)C)[C@H]2O)[C@](C)(OC)C[C@@H](C)C(=O)[C@H](C)[C@H]2[C@H](SCCCn3cnc4cccnc43)C(=O)O[C@@]21C [Example 12] | <=0.06 μg/ml | 0.5 µg/mL | 1 µg/mL | >32 µg/mL | 2 µg/mL (≈ 2.08 µM) | 8 µg/mL (≈ 8.31 µM) | 8 µg/mL (≈ 8.31 µM) | <=0.06 μg/ml | 4 µg/mL | 8 µg/mL | – | – |
| CC[C@H]1OC(=O)[C@H](C)[C@@H](O[C@H]2C[C@@](C)(OC)[C@@H](O)[C@H](C)O2)[C@H](C)[C@@H](O[C@@H]2O[C@H](C)C[C@H](N(C)C)[C@H]2O)[C@](C)(OC)C[C@@H](C)C(=O)[C@H](C)[C@H]2[C@H](SCCn3ncc4c(N)ncnc43)C(=O)O[C@@]21C [Example 13] | <=0.06 μg/ml | 0.125 µg/mL | 0.25 µg/mL | >=32 μg/ml | 2 µg/mL (≈ 2.07 µM) | 16 µg/mL (≈ 16.6 µM) | 2 µg/mL (≈ 2.07 µM) | <=0.06 μg/ml | 4 µg/mL | 4 µg/mL | – | – |
| CC[C@H]1OC(=O)[C@H](C)[C@@H](O[C@H]2C[C@@](C)(OC)[C@@H](O)[C@H](C)O2)[C@H](C)[C@@H](O[C@@H]2O[C@H](C)C[C@H](N(C)C)[C@H]2O)[C@](C)(OC)C[C@@H](C)C(=O)[C@H](C)[C@H]2[C@H](SCCN(C)CCn3cnc4c(N)ncnc43)C(=O)O[C@@]21C [Example 14] | <=0.06 μg/ml | 0.5 µg/mL | 1 µg/mL | >32 µg/mL | 2 µg/mL (≈ 1.96 µM) | 16 µg/mL (≈ 15.7 µM) | 16 µg/mL (≈ 15.7 µM) | <=0.06 μg/ml | 8 µg/mL | 8 µg/mL | – | – |
| CC[C@H]1OC(=O)[C@H](C)[C@@H](O[C@H]2C[C@@](C)(OC)[C@@H](O)[C@H](C)O2)[C@H](C)[C@@H](O[C@@H]2O[C@H](C)C[C@H](N(C)C)[C@H]2O)[C@](C)(OC)C[C@@H](C)C(=O)[C@H](C)[C@H]2[C@H](SCCCN3C(=O)c4ccccc4C3=O)C(=O)O[C@@]21C [Example 15] | <=0.06 μg/ml | 1 µg/mL | 2 µg/mL | >32 µg/mL | 1 µg/mL (≈ 1.01 µM) | >=32 μg/ml | 16 µg/mL (≈ 16.1 µM) | <=0.06 μg/ml | 4 µg/mL | 4 µg/mL | – | – |
| CC[C@H]1OC(=O)[C@H](C)[C@@H](O[C@H]2C[C@@](C)(OC)[C@@H](O)[C@H](C)O2)[C@H](C)[C@@H](O[C@@H]2O[C@H](C)C[C@H](N(C)C)[C@H]2O)[C@](C)(OC)C[C@@H](C)C(=O)[C@H](C)[C@H]2[C@H](SCCCn3cnc4c(N)ncnc43)C(=O)O[C@@]21C [Example 16] | <=0.06 μg/ml | 0.125 µg/mL | 0.5 µg/mL | >=32 μg/ml | 1 µg/mL (≈ 1.02 µM) | >32 µg/mL | 1 µg/mL (≈ 1.02 µM) | 0.125 µg/mL (≈ 0.128 µM) | 2 µg/mL | 2 µg/mL | – | – |
| CN(C)[C@@H]1C(O)=C(C(N)=O)C(=O)[C@@]2(O)C(O)=C3C(=O)c4c(O)cccc4[C@@](C)(O)[C@H]3C[C@@H]12 [Tetracycline, reference compound] | – | – | – | – | – | – | – | – | – | – | 32 µg/mL (≈ 72 µM) | ≤ 0.06 µg/mL |
